Patent publication US20260356824A1, “COMPOUNDS FOR TREATING FIBROTIC DISEASES” (Meta-Immue Inc., priority 2023, published 2026)

Key:
hLPAR1 = target: T1, hLPAR1 (Homo sapiens, UniProt Q92633); assay: Ca2+ Flux Assay (B103 cells stably expressing hLPAR1); format: cell-based; details: LPA-induced calcium release, Fura-2 AM, compound 20 min at RT
T1 construct: expressed in transfected cells
Description: B103 cells stably expressing hLPAR1 were seeded at a density of 1.0×10^5 cells per well in clear flat-bottom black 96-well plates and incubated overnight in complete media. The following day, the cells were pre-incubated in serum-free media for 2 hours prior to ensure cellular equilibration. For the loading a calcium-sensitive fluorescent dye, the cells were treated with a concentration of 5 μM Fura-2 AM dye (Sigma, F1225) in Hank's buffered salt solution (HBSS) supplemented with 20 mM HEPES, […], and 0.3% fatty-acid-free bovine serum albumin for 40 minutes at room temperature (RT). Test compounds, prepared in DMSO, were then added to each well and incubated for 20 minutes at RT. To induce calcium release, a concentration of […] in HBSS supplemented with 20 mM HEPES, and 0.3% fatty-acid-free bovine serum albumin was introduced. Intracellular calcium mobilization was subsequently quantified by monitoring the fluorescence intensity using the Spark® multimode microplate reader (TECAN).

A2058 cells = assay: Chemotaxis Assay (LPA-induced migration of A2058 cells); format: cell-based; details: Homo sapiens, 4 to 8 hours, crystal violet 590 nm
Description: For monitoring the migration of cells, Neuroprobe ChemoTx® System plates ([…], 5.7 mm diameter sites; Gaithersburg, MD, USA) were utilized. To induce cell migrations, a concentration of […] or vehicle in DMEM were loaded to the bottom chamber. A total of 15,000 A2058 cells, which were starved for 24 hr following treated with test compounds or vehicle, were then applied to the upper membrane coated with 0.001% fibronectin. The plate was incubated for 4 to 8 hours to allow cell migration. Following incubation, the plate was dissembled, and the migrated cells were visualized by crystal violet staining. The stained area with crystal violet was quantified by measuring the absorbance at 590 nm and the relative percentage of the control was calculated.

BSEP = target: T2, BSEP (Homo sapiens, UniProt O95342); assay: Bile Salt Export Pump (BSEP) Assay, Sf9 insect cell vesicles expressing BSEP; format: in vitro ADME; details: 10 μM test compound, probe substrate 1 μM [3H]-taurocholic acid, 15 min incubation
T2 construct: ATP-dependent uptake of radiolabelled probe substrate
T2 sequence (O95342 whole entry): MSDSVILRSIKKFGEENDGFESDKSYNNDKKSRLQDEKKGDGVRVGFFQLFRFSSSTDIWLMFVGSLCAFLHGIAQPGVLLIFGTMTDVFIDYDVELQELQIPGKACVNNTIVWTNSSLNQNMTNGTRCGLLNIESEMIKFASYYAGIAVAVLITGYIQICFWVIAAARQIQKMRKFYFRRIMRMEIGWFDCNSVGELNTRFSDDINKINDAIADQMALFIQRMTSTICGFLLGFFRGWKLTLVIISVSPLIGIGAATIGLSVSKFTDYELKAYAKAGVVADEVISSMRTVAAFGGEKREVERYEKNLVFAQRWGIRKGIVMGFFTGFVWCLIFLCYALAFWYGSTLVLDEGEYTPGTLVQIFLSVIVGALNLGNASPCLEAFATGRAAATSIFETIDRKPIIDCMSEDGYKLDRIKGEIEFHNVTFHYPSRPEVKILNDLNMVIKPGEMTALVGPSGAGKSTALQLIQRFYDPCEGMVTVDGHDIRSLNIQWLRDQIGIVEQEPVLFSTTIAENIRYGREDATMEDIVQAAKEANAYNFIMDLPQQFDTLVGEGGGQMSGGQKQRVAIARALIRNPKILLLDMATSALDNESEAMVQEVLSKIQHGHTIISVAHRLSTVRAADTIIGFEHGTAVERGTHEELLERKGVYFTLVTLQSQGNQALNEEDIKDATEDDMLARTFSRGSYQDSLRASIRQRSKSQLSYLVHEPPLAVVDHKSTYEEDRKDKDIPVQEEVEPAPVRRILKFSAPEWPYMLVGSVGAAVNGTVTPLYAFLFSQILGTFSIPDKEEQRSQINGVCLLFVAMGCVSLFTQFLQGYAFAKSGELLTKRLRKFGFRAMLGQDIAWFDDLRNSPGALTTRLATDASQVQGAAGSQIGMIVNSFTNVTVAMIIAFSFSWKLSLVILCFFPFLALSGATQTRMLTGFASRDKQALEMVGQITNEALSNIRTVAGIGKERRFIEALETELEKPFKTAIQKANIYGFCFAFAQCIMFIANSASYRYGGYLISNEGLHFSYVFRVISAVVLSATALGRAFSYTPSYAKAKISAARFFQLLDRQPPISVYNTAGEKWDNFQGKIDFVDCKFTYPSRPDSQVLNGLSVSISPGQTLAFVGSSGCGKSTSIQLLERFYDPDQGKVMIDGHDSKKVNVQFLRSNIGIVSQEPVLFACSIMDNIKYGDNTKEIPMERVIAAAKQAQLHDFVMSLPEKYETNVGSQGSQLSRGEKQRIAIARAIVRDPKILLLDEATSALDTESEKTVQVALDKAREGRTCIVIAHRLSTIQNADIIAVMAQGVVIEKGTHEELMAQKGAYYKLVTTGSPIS
Description: • 1. A stock solution was prepared with the test article (Sponsor compound) in DMSO. • 2. All final assay solutions of probe substrate, reference inhibitor or test article contain 0.5% (v/v) DMSO (vehicle control). • 3. Test article concentrations in transport study were specified in the Summary Table of Experimental Conditions of this protocol.
• 1. Bovine Serum Albumin (BSA) • 2. Dimethyl sulfoxide (DMSO) • 3. BSEP Assay Uptake Buffer (10 mM HEPES-Tris pH 7.4, 0.1 M KNO3, 12.5 mM Mg(NO3)2, 50 mM sucrose) • 4. BSEP Wash Buffer (10 mM Tris-HCl pH 7.4, 0.1 M KNO3, 50 mM sucrose) • 5. BSEP Blocking Buffer (BSEP Wash Buffer+0.5 mg/mL BSA) • 6. 25 mM Mg-ATP solution • 7. 25 mM AMP solution • 8. Corning Costar 96-well flat-bottom, untreated, white Assay Plate (Corning Cat. No. 3912) • 9. Millipore MultiscreenHTs Filtration Plate, glass fiber FB—1.0/0.65 μm (Cat. No. MSFBN6B10 or glass fiber FC—1.2/0.65 μm (Cat. No. MSFCN6B10) • 10. Millipore MultiscreenHTS Vacuum Manifold (Cat. No. MSVMHTS00) • 11. Probe substrates listed in Table 1 • 12. Reference inhibitors listed in Table 1 • 13. Test articles
• 1. Test system: • a. 96-well flat bottom plate containing a suspension of vesicles and a corresponding 96-well glass fiber filtration plate. • b. Transport experiments were conducted in the Assay Uptake Buffer. • c. Transport experiment was initiated with the addition of Mg-ATP or AMP to appropriate wells. • d. Each condition was run in triplicate wells. • 2. Prepared the 96-well flat-bottom assay plate. • a. Incubated the assay plate with the Blocking Buffer for 60 min at 37 °C with orbital shaking at approximately 90 rpm. (NOTE: This is done to prevent non-specific binding of vesicles to polystyrene assay plate). • b. After 60 min, completely removed the Blocking Buffer from the assay plate. • c. The Assay Uptake Buffer solutions were added to the assay plate wells as follows: • i. For probe substrate transport assays, the Assay Uptake Buffer contained vesicles and the probe substrate at the specified concentration. • ii. For the reference inhibition assay, the Assay Uptake Buffer contained vesicles, the reference inhibitor and the probe substrate at the specified concentration in Table 1. • iii. For the test article assays, Assay Uptake Buffer contained vesicles, the test article and the probe substrate at the specified concentration in Table 1. • 3. Incubate at 37 °C with orbital shaking at approximately 90 rpm for the time period specified in Table 1 of this protocol. • 4. Using the 25 mM Mg-ATP or AMP stocks, Mg-ATP or AMP was added to test wells of flat bottom assay plate to a final concentration of 5 mM. • 5. Incubated at 37 °C with orbital shaking at approximately 90 rpm for the incubation time specified in Table 1 of this protocol. • 6. Prepared the 96-well glass fiber filtration plate: • a. Incubated the filtration plate with the Blocking Buffer for 2 min at room temperature with under no vacuum. • b. Turned on vacuum and allowed Blocking Buffer to filter through plate. • c. With vacuum on, filter plate was washed with ice cold Wash Buffer. • 7. At the end of the specified incubation time indicated in […] of this protocol, vesicle transport was quenched by adding ice cold Wash Buffer to samples in 96-well assay plate. • 8. Mixed assay samples (now diluted in Wash Buffer) with pipette and transfered 175 μL into the 96-well glass fiber filtration plate to separate vesicles from buffer by applying vacuum. • 9. Washed filter plate wells with ice cold Wash Buffer. • 10. Allowed filter plate to dry under vacuum. • 11. Transfered filters to scintillation sample plate and added 700 μL of scintillation fluid to the above samples. • 12. Counted the above samples on a 1450 Microbeta (Perkin-Elmer).
• 1. The amount of substrate was quantified with radiometric detection on a 1450 Microbeta (Perkin-Elmer). • 2. For transport study samples run in triplicate, the mean and standard deviation of the replicates were reported. • 3. […]

T1 sequence (Q92633 whole entry): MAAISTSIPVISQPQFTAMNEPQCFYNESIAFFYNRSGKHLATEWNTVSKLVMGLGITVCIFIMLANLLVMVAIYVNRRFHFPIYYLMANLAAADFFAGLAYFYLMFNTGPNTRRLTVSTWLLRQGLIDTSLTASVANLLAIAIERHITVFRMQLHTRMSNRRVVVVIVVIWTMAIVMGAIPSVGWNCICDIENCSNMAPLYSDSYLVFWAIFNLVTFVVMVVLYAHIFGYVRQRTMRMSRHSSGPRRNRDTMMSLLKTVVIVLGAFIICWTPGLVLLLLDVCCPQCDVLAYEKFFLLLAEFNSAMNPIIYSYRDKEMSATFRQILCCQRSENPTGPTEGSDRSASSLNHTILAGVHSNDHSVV

Row | Compound | IC50 (hLPAR1) [nM] | IC50 (A2058 cells) [nM] | inhibition at 0.25 h, 10 µM (BSEP) [%]
1 | Cc1ccccc1[C@@H](C)OC(=O)Nc1c(C)noc1C1CC2(C1)CN(c1ccc(C3(C(=O)NS(C)(=O)=O)CC3)cc1)C2 [Compound 7] | < 10 | < 100 | 75 to 100
2 | Cc1noc(C2CC3(C2)CN(c2ccc(C4(C(=O)NS(C)(=O)=O)CC4)cc2)C3)c1NC(=O)O[C@H](C)c1ccccc1 [Compound 9] | < 10 | 100 to 500 | 50 to 75
3 | C[C@@H](OC(=O)Nc1c(C2CCN(c3ccc(C4(C(=O)NS(=O)(=O)CCC(=O)O)CC4)cc3)CC2)nnn1C)c1ccccc1 [Compound 17] | < 10 | 500 to 5000 | ≤ 25
4 | COc1ccc(C2CCN(c3ccc(C4(C(=O)O)CC4)cc3)CC2)c(NC(=O)O[C@H](C)c2ccccc2)c1 [Compound 19, (R)-1-(4-(4-(4-methoxy-2-(((1-phenylethoxy)carbonyl)amino)phenyl)piperidin-1-yl)phenyl)cyclopropane-1-carboxylic acid] | < 10 | < 100 | 50 to 75
5 | Cc1noc(C2CCN(c3ccc(C4(C(=O)O)CC4)cc3)CC2)c1C(O)CCCc1ccccc1 (stereo not drawn) [Compound 20] | 10 to 200 | 100 to 500 | 75 to 100
6 | Cc1ccccc1[C@@H](C)OC(=O)Nc1c(C)noc1C1CC2(C1)CN(c1ccc(C3(C(=O)O)CC3)cc1)C2 [Compound 33, 1-(4-{6-[3-methyl-4-({[(1R)-1-(2-methylphenyl)ethoxy]carbonyl}amino)-1,2-oxazol-5-yl]-2-azaspiro[3.3]heptan-2-yl}phenyl)cyclopropane-1-carboxylic acid] | < 10 | < 100 | 75 to 100
7 | CCc1ccccc1[C@@H](C)OC(=O)Nc1c(C)noc1C1CCN(c2ccc(C3(C(=O)NS(=O)(=O)CCC(=O)O)CC3)cc2)CC1 [Compound 37, 3-({[1-(4-{4-[4-({[(1R)-1-(2-ethylphenyl)ethoxy]carbonyl}amino)-3-methyl-1,2-oxazol-5-yl]piperidin-1-yl}phenyl)cyclopropyl]formamido}sulfonyl)propanoic acid] | < 10 | < 100 | 50 to 75
8 | Cc1noc(C2CC3(C2)CN(c2ccc(C4(C(=O)O)CC4)cc2)C3)c1NC(=O)O[C@H](C)c1ccccc1 [Compound 54, 1-(4-{6-[3-methyl-4-({[(1R)-1-phenylethoxy]carbonyl}amino)-1,2-oxazol-5-yl]-2-azaspiro[3.3]heptan-2-yl}phenyl)cyclopropane-1-carboxylic acid] | 10 to 200 | < 100 | 25 to 50
9 | COC(=O)C(C)(C)S(=O)(=O)NC(=O)C1(c2ccc(N3CCC(c4onc(C)c4NC(=O)O[C@H](C)c4ccccc4)CC3)cc2)CC1 [Compound 69, methyl 2-methyl-2-[[1-[4-[4-[3-methyl-4-[[(1R)-1-phenylethoxy]carbonylamino]isoxazol-5-yl]-1-piperidyl]phenyl]cyclopropanecarbonyl]sulfamoyl]propanoate] | < 10 | < 100 | –
10 | Cc1noc(C2CCN(c3ccc(C4(C(=O)NS(=O)(=O)C5(C(N)=O)CC5)CC4)cc3)CC2)c1NC(=O)O[C@H](C)c1ccccc1 [Compound 73, (1R)-1-phenylethyl N-(5-{1-[4-(1-{[(1-carbamoylcyclopropyl)sulfonyl]carbamoyl}cyclopropyl)phenyl]piperidin-4-yl}-3-methyl-1,2-oxazol-4-yl)carbamate] | < 10 | < 100 | –
11 | Cc1noc(C2CCN(c3ccc(C4(C(=O)NS(=O)(=O)C5(C(=O)O)CC5)CC4)cc3)CC2)c1NC(=O)O[C@H](C)c1ccccc1 [Compound 75] | < 10 | < 100 | –
12 | Cc1noc(C2CCN(c3ccc(C4(C(=O)NS(=O)(=O)C5(CC(=O)O)CC5)CC4)cc3)CC2)c1NC(=O)O[C@H](C)c1ccccc1 [Compound 76] | < 10 | 100 to 500 | –
13 | Cc1noc(C2CCN(c3ccc(C4(C(=O)NS(=O)(=O)C5(CO)CC5)CC4)cc3)CC2)c1NC(=O)O[C@H](C)c1ccccc1 [Compound 77] | < 10 | < 100 | –
14 | Cc1noc(C2CCN(c3ccc(C4(C(=O)NS(=O)(=O)CC5(C)COC5)CC4)cc3)CC2)c1NC(=O)O[C@@H](C)c1ccccc1 [Compound 81] | < 10 | < 100 | –
15 | Cc1noc(C2CCN(c3ccc(C4(C(=O)NS(=O)(=O)CC5(C(=O)O)CC5)CC4)cc3)CC2)c1NC(=O)O[C@H](C)c1ccccc1 [Compound 82, 1-[({[1-(4-{4-[3-methyl-4-({[(1R)-1-phenylethoxy]carbonyl}amino)-1,2-oxazol-5-yl]piperidin-1-yl}phenyl)cyclopropyl]formamido}sulfonyl)methyl]cyclopropane-1-carboxylic acid] | < 10 | < 100 | –
16 | Cc1noc(C2CCN(c3ccc(C4(c5nnn[nH]5)CC4)cc3)CC2)c1NC(=O)O[C@H](C)c1ccccc1 [Compound 88, [(1R)-1-phenylethyl]N-[3-methyl-5-[1-[4-[1-(1H-tetrazol-5-yl)cyclopropyl]phenyl]-4-piperidyl]isoxazol-4-yl]carbamate] | < 10 | < 100 | –
17 | Cc1noc(C2CCN(c3ccc(C4(S(=O)(=O)O)CC4)cc3)CC2)c1NC(=O)O[C@H](C)c1ccccc1 [Compound 89, 1-[4-[4-[3-methyl-4-[[(1R)-1-phenylethoxy]carbonylamino]isoxazol-5-yl]-1-piperidyl]phenyl]cyclopropanesulfonic acid] | < 10 | 100 to 500 | –
18 | Cc1cc(NC(=O)O[C@H](C)c2ccccc2)c(C2CCN(c3ccc(C4(C(=O)O)CC4)cc3)CC2)s1 [Compound 91] | ≥ 3000 | 100 to 500 | –
19 | Cc1noc(C2CCN(c3ccc(C4(C(=O)O)CC4)cc3)CC2)c1NC(=O)OC(C)C1CCCCC1 (stereo not drawn) [Compound 96] | 10 to 200 | 500 to 5000 | –
20 | Cc1noc(C2CCN(c3ccc(C4(C(=O)O)CC4)cc3)CC2)c1NC(=O)OC1C2C[C@H]3C[C@@H](C2)C[C@@H]1C3 (stereo partly drawn) [Compound 97] | 200 to 3000 | 500 to 5000 | –
